Measurements as given in the supplement of paper PMC4862054.

Legend:
Settings in all cases: incubation time: 72 h
CAL-120 [1] = test: normalised viability (% of control), CellTiter-Blue; higher = more viable cells (100 = DMSO, 0 = benzethonium chloride kill control)
Description: (§1)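 DSRT, CellTiter-Blue viability, 72 h incubation. Signal is normalised to DMSO and benzethonium chloride controls. Value is the normalised response at dose 1.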

Hs578T [2] = test: as above
Description: as §1

MDA-MB-436 [3] = test: as above
Description: as §1

CAL-51 [4] = test: as above
Description: as §1

MFM-223 [5] = test: as above
Description: as §1

SK-BR-3 [6] = test: as above
Description: as §1

HDQ-P1 [7] = test: as above
Description: as §1

HCC1599 [8] = test: as above
Description: as §1

DU-4475 [9] = test: as above
Description: as §1

MDA-MB-453 [10] = test: as above
Description: as §1

BT-549 [11] = test: as above
Description: as §1

HCC1937 [12] = test: as above
Description: as §1

CAL-85-1 [13] = test: as above
Description: as §1

MDA-MB-468 [14] = test: as above
Description: as §1

MDA-MB-231 [15] = test: as above
Description: as §1

BT-474 [16] = test: as above
Description: as §1

CAL-148 [17] = test: as above
Description: as §1

HCC1143 [18] = test: as above
Description: as §1

CAL-120 [19] = test: normalised response (% of control), CellTiter-Glo; higher = more viable cells (100 = DMSO, 0 = benzethonium chloride kill control)
Procedure, shortened: (§2)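 Breast cancer cell lines, seeded at 20 µl suspension per well, were incubated for 72 h in 384-well plates containing compound at 5 concentrations. These concentrations rose in 10-fold steps over a 10,000-fold range set for each compound. CellTox Green fluorescence (485/520 nm) was read, then CellTiter-Glo luminescence after 10 min at room temperature, and each plate was normalised to 0.1 % DMSO (100) and a positive kill control (0). Values are normalised signals, each at one concentration.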

Hs578T [20] = test: as above
Procedure, shortened: as §2

MDA-MB-436 [21] = test: as above
Procedure, shortened: as §2

CAL-51 [22] = test: as above
Procedure, shortened: as §2

MFM-223 [23] = test: as above
Procedure, shortened: as §2

SK-BR-3 [24] = test: as above
Procedure, shortened: as §2

HDQ-P1 [25] = test: as above
Procedure, shortened: as §2

HCC1599 [26] = test: as above
Procedure, shortened: as §2

MCF-10A = test: as above
Procedure, shortened: as §2

DU-4475 [27] = test: as above
Procedure, shortened: as §2

MDA-MB-453 [28] = test: as above
Procedure, shortened: as §2

BT-549 [29] = test: as above
Procedure, shortened: as §2

HCC1937 [30] = test: as above
Procedure, shortened: as §2

CAL-85-1 [31] = test: as above
Procedure, shortened: as §2

MDA-MB-468 [32] = test: as above
Procedure, shortened: as §2

MDA-MB-231 [33] = test: as above
Procedure, shortened: as §2

BT-474 [34] = test: as above
Procedure, shortened: as §2

CAL-148 [35] = test: as above
Procedure, shortened: as §2

HCC1143 [36] = test: as above
Procedure, shortened: as §2

Row | Compound | normalised viability (CAL-120 [1]) [%] | normalised viability (Hs578T [2]) [%] | normalised viability (MDA-MB-436 [3]) [%] | normalised viability (CAL-51 [4]) [%] | normalised viability (MFM-223 [5]) [%] | normalised viability (SK-BR-3 [6]) [%] | normalised viability (HDQ-P1 [7]) [%] | normalised viability (HCC1599 [8]) [%] | normalised viability (DU-4475 [9]) [%] | normalised viability (MDA-MB-453 [10]) [%] | normalised viability (BT-549 [11]) [%] | normalised viability (HCC1937 [12]) [%] | normalised viability (CAL-85-1 [13]) [%] | normalised viability (MDA-MB-468 [14]) [%] | normalised viability (MDA-MB-231 [15]) [%] | normalised viability (BT-474 [16]) [%] | normalised viability (CAL-148 [17]) [%] | normalised viability (HCC1143 [18]) [%] | normalised response (CAL-120 [19]) [%] | normalised response (Hs578T [20]) [%] | normalised response (MDA-MB-436 [21]) [%] | normalised response (CAL-51 [22]) [%] | normalised response (MFM-223 [23]) [%] | normalised response (SK-BR-3 [24]) [%] | normalised response (HDQ-P1 [25]) [%] | normalised response (HCC1599 [26]) [%] | normalised response (MCF-10A) [%] | normalised response (DU-4475 [27]) [%] | normalised response (MDA-MB-453 [28]) [%] | normalised response (BT-549 [29]) [%] | normalised response (HCC1937 [30]) [%] | normalised response (CAL-85-1 [31]) [%] | normalised response (MDA-MB-468 [32]) [%] | normalised response (MDA-MB-231 [33]) [%] | normalised response (BT-474 [34]) [%] | normalised response (CAL-148 [35]) [%] | normalised response (HCC1143 [36]) [%]
1 | O=C(/C=C/c1cccc(S(=O)(=O)Nc2ccccc2)c1)NO [Belinostat] (1 nM) | 97.4 | 109 | 120 | 102 | 93.4 | 91.5 | 84.2 | 97.1 | 93.1 | 101 | 89.5 | 111 | 92.5 | 103 | 102 | 106 | 97.1 | 107 | 96.6 | 92.9 | 91.7 | 75.1 | 89.2 | 87.8 | 93.5 | 97.6 | 87 | 98.9 | 97 | 96.1 | 96.5 | 97.8 | 94.9 | 95.8 | 91 | 99.9 | 91.8
2 | COCC1(CO)C(=O)C2CCN1CC2 (stereo not drawn) [Prima-1 Met] (1 nM) | 86.9 | 114 | 104 | 90.5 | 98.7 | 104 | 83 | 123 | 120 | 93.9 | 106 | 74.9 | 90.5 | 108 | 89.7 | 96.1 | 93.2 | 91.1 | 97.1 | 99.1 | 102 | 81.5 | 104 | 109 | 108 | 101 | 108 | 102 | 116 | 104 | 95.5 | 101 | 107 | 101 | 102 | 107 | 98.8
3 | O=C(Nc1cccnc1)N1CCC(Cc2cccc(Oc3ccc(C(F)(F)F)cn3)c2)CC1 [PF-3845] (1 nM) | 86.7 | 135 | 99.8 | 98.4 | 91.9 | 123 | 145 | 98.9 | 92.1 | 103 | 111 | 91.6 | 89 | 104 | 114 | 70.3 | 106 | 92.8 | 107 | 106 | 105 | 89.8 | 110 | 113 | 103 | 95.8 | 113 | 95.8 | 117 | 107 | 98.4 | 101 | 97.9 | 110 | 98.6 | 114 | 108
4 | Cc1[nH]c2ccccc2c1CCNCc1ccc(/C=C/C(=O)NO)cc1 [Panobinostat] (0.1 nM) | 102 | 100 | 109 | 110 | 104 | 97.2 | 100 | 116 | 111 | 108 | 108 | 104 | 104 | 106 | 109 | 102 | 106 | 104 | 107 | 91.8 | 98.9 | 130 | 99.5 | 95.9 | 98.2 | 98.6 | 96.2 | 99.7 | 103 | 99.5 | 94.7 | 102 | 94.4 | 105 | 101 | 105 | 100
